Measured values taken from US7276519B2, “Thieno[3,2-b]pyridine-6-carbonitriles and thieno[2,3-b]pyridine-5-carbonitriles as protein kinase inhibitors” (Wyeth, priority 2002, dated 2007).
Several values for one entry are separate records, joined by “and”; a condition that tells them apart may be missing. Equal values may be shown once. Read-outs that look alike come from different tables or passages of the source.

Key:
[1] = system: Rat2 fibroblasts stably transformed with v-Src/Hu c-Src fusion gene; assay: Anchorage independent Src-transformed fibroblast proliferation assay; format: cell-based, rat
Procedure: Anchorage Independent Src-Transformed Fibroblast Proliferation Assay Rat2 fibroblasts stably transformed with a plasmid containing a CMV promotor controlled v-Src/Hu c-Src fusion gene in which the catalytic domain of human c-Src was inserted in place of the v-Src catalytic domain in the v-Src gene are used for the measurement of src dependent suspension growth. […] Multiple entries for a given compound indicate that it was tested multiple times.

[2] = molecular target: T1, Rat2 fibroblasts stably transformed with v-Src/Hu Lck fusion gene (Homo sapiens, UniProt P06239, cells depend on it, form not given); assay: Anchorage independent Lck-transformed fibroblast proliferation assay; format: cell-based, rat
T1 construct: Candidates are e.g. Schmidt-Ruppin A (P00524) or Prague C (P00526); The human Lck catalytic domain stands in place of the v-Src catalytic domain
Procedure: Anchorage Independent Lck-Transformed Fibroblast Proliferation Assay
Rat2 fibroblasts stably transformed with a plasmid containing a CMV promotor controlled v-Src/Hu Lck fusion gene in which the catalytic domain of human Lck was inserted in place of the v-Src catalytic domain in the v-Src gene are used for the measurement of src dependent suspension growth. Ultra-low cluster plates (Costar # 3474) are seeded with 10,000 cells per well on Day 1. Compound is added in serial two-fold dilutions from 10 micromolar to 0.009 micromolar on Day 2 and MTS reagent (Promega) is added on Day 5 (100 microliters of MTS/medium mix+100 microliters of medium already on the cells and the absorbance is measured at 490 nm. The results are analyzed as follows to yield an IC50 for proliferation (micromolar units) as follow: % inhibition=(Abs490 nm sample−blank)/(Abs490 nm no cmpd control−blank)×100%. The results obtained for representative compounds of this invention are listed in Table 2. Multiple entries for a given compound indicate that it was tested multiple times.

[3] = Rattus norvegicus, Rat2, Table 3, read-out: Src Cells IC50 μM or % inhib at 10 μM (IC50 values)
[4] = Table 3, read-out: Src Cells IC50 μM or % inhib at 10 μM (IC50 values)
[5] = Table 3, read-out: Lck Cells IC50
[6] = Rattus norvegicus, Rat2, 120 h, Table 1, suspension growth, MTS readout Day 5, read-out: Src cells IC50
[7] = Table 2, suspension growth, MTS readout Day 5, read-out: Lck cells IC50
[8] = Table 1, suspension growth, MTS readout Day 5, read-out: Src cells IC50

T1 sequence (P06239 whole entry, change not shown, the tested form may be a part): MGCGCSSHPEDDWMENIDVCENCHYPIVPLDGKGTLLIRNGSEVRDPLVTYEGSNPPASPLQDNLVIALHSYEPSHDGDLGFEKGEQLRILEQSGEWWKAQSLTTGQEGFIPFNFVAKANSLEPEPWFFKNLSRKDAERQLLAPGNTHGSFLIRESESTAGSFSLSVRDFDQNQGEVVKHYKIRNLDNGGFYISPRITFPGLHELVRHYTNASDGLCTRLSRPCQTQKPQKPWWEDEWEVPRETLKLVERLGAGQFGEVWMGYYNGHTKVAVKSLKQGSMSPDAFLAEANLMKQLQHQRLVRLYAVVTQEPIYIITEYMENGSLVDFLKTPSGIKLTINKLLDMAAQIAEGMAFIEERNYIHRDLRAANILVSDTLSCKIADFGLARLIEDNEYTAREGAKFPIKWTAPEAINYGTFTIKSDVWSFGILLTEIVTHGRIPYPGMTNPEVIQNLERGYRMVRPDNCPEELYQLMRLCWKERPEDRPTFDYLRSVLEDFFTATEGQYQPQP

GI50 [2, 5] | melting point | GI50 [2, 7] | SMILES | IC50 [1, 3] [µM] | IC50 [1, 4] [µM] | inhibition at 10 µM ([1]; Rattus norvegicus, Rat2, Table 3, at 10 μM, read-out: Src Cells IC50 μM or % inhib at 10 μM (% values)) [%] | Src Cells IC50 μM or % inhib at 10 μM (% values) ([1]; Table 3, at 10 μM) | IC50 [1, 6] [µM] | IC50 [1, 8] [µM]
82 nM and 97 nM | 192 to 193 °C |  | CCN(CC)Cc1ccc(-c2cc3ncc(C#N)c(Nc4cc(OC)c(Cl)cc4Cl)c3s2)nc1 [Example 133, 7-[(2,4-dichloro-5-methoxyphenyl)amino]-2-{5-[(diethylamino)methyl]pyridin-2-yl}thieno[3,2-b]pyridine-6-carbonitrile] | 0.436 | 0.289 |  |  |  | 
> 10000 nM | 315 to 316 °C |  | COc1cc(Nc2c(C#N)cnc3cc(/C=C/n4nccn4)sc23)c(Cl)cc1Cl [Example 66, 7-[(2,4-Dichloro-5-methoxyphenyl)amino]-2-[(E)-2-(2H-1,2,3-triazol-2-yl)vinyl]thieno[3,2-b]pyridine-6-carbonitrile] |  |  | 26 | 26%, 26% |  | 
> 10000 nM | 245 to 247 °C |  | COc1cc(Nc2c(C#N)cnc3cc(-c4ccc(CN5CCN(c6ccccn6)CC5)cc4)sc23)c(Cl)cc1Cl [Example 112, 7-[(2,4-dichloro-5-methoxyphenyl)amino]-2-{4-[(4-pyridin-2-ylpiperazin-1-yl)methyl]phenyl}thieno[3,2-b]pyridine-6-carbonitrile] | > 10 | 5.78 |  |  |  | 
 | 228 to 229 °C | 32000 nM | COc1cc(Nc2c(C#N)cnc3cc(Br)sc23)c(Cl)cc1Cl [Example 3, 2-Bromo-7-[(2,4-dichloro-5-methoxyphenyl)amino]-thieno[3,2-b]pyridine-6-carbonitrile] |  |  |  |  | 37 | 
4500 nM | 225 to 227 °C |  | COc1cc(Nc2c(C#N)cnc3cc(-c4ccc(N5CCOCC5)nc4)sc23)c(Cl)cc1Cl [Example 109, 7-[(2,4-dichloro-5-methoxyphenyl)amino]-2-(6-morpholin-4-ylpyridin-3-yl)thieno[3,2-b]pyridine-6-carbonitrile] | > 10 |  |  |  |  | 
2800 nM and 3000 nM | 187 to 189 °C |  | COc1cc(Nc2c(C#N)cnc3cc(-c4ccc(C5OCCO5)o4)sc23)c(Cl)cc1Cl [Example 68, 7-[(2,4-dichloro-5-methoxyphenyl)amino]-2-[5-(1,3-dioxolan-2-yl)-2-furyl]thieno[3,2-b]pyridine-6-carbonitrile] | 6.1 | 6 |  |  |  | 
600 nM and 510 nM | 178 to 180 °C |  | COc1cc(Nc2c(C#N)cnc3cc(-c4cccc(CN5CCN(C)CC5)c4)sc23)c(Cl)cc1Cl [Example 74, 7-[(2,4-dichloro-5-methoxyphenyl)amino]-2-{3-[(4-methylpiperazin-1-yl)methyl]phenyl}thieno[3,2-b]pyridine-6-carbonitrile] |  |  |  |  |  | 
> 10000 nM | 268 °C (dec.) |  | COc1cc(Nc2c(C#N)cnc3c(-c4ccc(C=O)cc4)csc23)c(Cl)cc1Cl [Example 140, 7-[(2,4-Dichloro-5-methoxyphenyl)amino]-3-(4-formylphenyl)thieno[3,2-b]pyridine-6-carbonitrile] | 8.46 | 8.58 |  |  |  | 
 | 209 to 212 °C | 680 nM | COc1cc(Nc2c(C#N)cnc3cc(-c4csc(CN5CCOCC5)c4)sc23)c(Cl)cc1Cl [Example 39, 7-[(2,4-Dichloro-5-methoxyphenyl)amino]-2-[5-(morpholin-4-ylmethyl)thien-3-yl]thieno[3,2-b]pyridine-6-carbonitrile] |  |  |  |  | 0.85 | 
 | 189 to 190 °C | 140 nM | COc1cc(Nc2c(C#N)cnc3cc(-c4ccc(CN5CCN(CCO)CC5)cc4)sc23)c(Cl)cc1Cl [Example 17, 7-[(2,4-Dichloro-5-methoxyphenyl)amino]-2-(4-{[4-(2-hydroxyethyl)piperazin-1-yl]methyl}phenyl)thieno[3,2-b]pyridine-6-carbonitrile] |  |  |  |  | 0.37 | 
1000 nM and 1060 nM | 128 to 130 °C |  | COc1cc(Nc2c(C#N)cnc3cc(-c4ccc(CNCc5ccncc5)cc4)sc23)c(Cl)cc1Cl [Example 89, 7-[(2,4-dichloro-5-methoxyphenyl)amino]-2-(4-{[(pyridin-4-ylmethyl)amino]methyl}phenyl)thieno[3,2-b]pyridine-6-carbonitrile] | 1.5 | 1.21 |  |  |  | 
 | 234 to 235 °C | 270 nM and 320 nM | COc1cc(Nc2c(C#N)cnc3cc(-c4cnc(CN5CCN(C)CC5)n4C)sc23)c(Cl)cc1Cl [Example 59, 7-[(2,4-Dichloro-5-methoxyphenyl)amino]-2-{1-methyl-2-[(4-methylpiperazin-1-yl)methyl]-1H-imidazol-5-yl}thieno[3,2-b]pyridine-6-carbonitrile] |  |  |  |  | 1.21 | 2.29
1900 nM and 1700 nM | 213 to 217 °C |  | COc1cc(Nc2c(C#N)cnc3cc(-c4ccc(C5OCCO5)s4)sc23)c(Cl)cc1Cl [Example 77, 7-[(2,4-dichloro-5-methoxyphenyl)amino]-2-[5-(1,3-dioxolan-2-yl)thien-2-yl]thieno[3,2-b]pyridine-6-carbonitrile] | 2.4 | 1.5 |  |  |  | 
1220 nM and 1340 nM | 245 to 247 °C |  | CN1CCN(Cc2ccc(-c3cc4ncc(C#N)c(Nc5ccc(Cl)cc5Cl)c4s3)cc2)CC1 [Example 119, 7-[(2,4-dichlorophenyl)amino]-2-{4-[(4-methylpiperazin-1-yl)methyl]phenyl}thieno[3,2-b]pyridine-6-carbonitrile] |  |  |  |  |  | 
 | 199 to 201 °C | 17 nM and 15 nM and 14 nM | COc1cc(Nc2c(C#N)cnc3cc(-c4ccc(CN(C)C)cc4)sc23)cc(OC)c1OC [Example 61, 2-{4-[(Dimethylamino)methyl]phenyl}-7-[(3,4,5-trimethoxyphenyl)amino]thieno[3,2-b]pyridine-6-carbonitrile] |  |  |  |  | 0.217 | 0.279
67 nM and 53 nM | 189 to 192 °C |  | COc1cc(Nc2c(C#N)cnc3cc(-c4coc(CN5CCN(C)CC5)c4)sc23)c(Cl)cc1Cl [Example 137, 7-[(2,4-dichloro-5-methoxyphenyl)amino]-2-{5-[(4-methylpiperazin-1-yl)methyl]-3-furyl}thieno[3,2-b]pyridine-6-carbonitrile] | 0.303 | 0.211 |  |  |  | 
1900 nM and 2200 nM | 215 to 217 °C |  | COc1cc(Nc2c(C#N)cnc3cc(-c4ccc(CN5CCN(C)CC5)o4)sc23)c(Cl)cc1Cl [Example 69, 7-[(2,4-dichloro-5-methoxyphenyl)amino]-2-{5-[(4-methylpiperazin-1-yl)methyl]-2-furyl}thieno[3,2-b]pyridine-6-carbonitrile] | 2.8 | 3.4 |  |  |  | 
3340 nM and 1930 nM | 215 to 217 °C |  | COc1cc(Nc2c(C#N)cnc3cc(C#Cc4ccc(CN(C)C)cn4)sc23)c(Cl)cc1Cl [Example 100, 7-[(2,4-dichloro-5-methoxyphenyl)amino]-2-({5-[(dimethylamino)methyl]pyridin-2-yl}ethynyl)thieno[3,2-b]pyridine-6-carbonitrile] | > 10 |  |  |  |  | 
 | 189 to 191 °C | 48 nM | COc1cc(Nc2c(C#N)cnc3cc(-c4ccc(CN5CCN(C)CC5)cc4)sc23)cc(OC)c1OC [Example 58, 2-{4-[(4-Methylpiperazin-1-yl)methyl]phenyl}-7-[(3,4,5-trimethoxyphenyl)amino]thieno[3,2-b]pyridine-6-carbonitrile] |  |  |  |  | 0.165 | 0.245
 | 224 to 225 °C | 79 nM | COc1cc(Nc2c(C#N)cnc3cc(-c4ccc(CN(C)C)cc4)sc23)c(Cl)cc1Cl [Example 62, 7-[(2,4-Dichloro-5-methoxyphenyl)amino]-2-{4-[(dimethylamino)methyl]phenyl}thieno[3,2-b]pyridine-6-carbonitrile] |  |  |  |  |  | 
180 nM and 220 nM | 200 to 202 °C |  | COc1cc(Nc2c(C#N)cnc3cc(-c4ccc(CN5CCN(C)CC5)s4)sc23)c(Cl)cc1Cl [Example 81, 7-[(2,4-dichloro-5-methoxyphenyl)amino]-2-{5-[(4-methylpiperazin-1-yl)methyl]thien-2-yl}thieno[3,2-b]pyridine-6-carbonitrile] |  |  |  |  |  | 
 | 244 to 245 °C | 350 nM | COc1cc(Nc2c(C#N)cnc3cc(-c4ccc(CN5CCOCC5)cc4)sc23)c(Cl)cc1Cl [Example 15, 7-[(2,4-Dichloro-5-methoxyphenyl)amino]-2-[4-(4-morpholinylmethyl)phenyl]thieno[3,2-b]pyridine-6-carbonitrile] |  |  |  |  |  | 
